pIC50: −log10 of the molar value.
Experiments:
PxRDL1 = target: T1, PxRDL1 (Plutella xylostella, UniProt C0L7I5); assay: two-electrode voltage clamp, Xenopus laevis oocytes; assay type: cell-based
T1 sequence (C0L7I5 26-485): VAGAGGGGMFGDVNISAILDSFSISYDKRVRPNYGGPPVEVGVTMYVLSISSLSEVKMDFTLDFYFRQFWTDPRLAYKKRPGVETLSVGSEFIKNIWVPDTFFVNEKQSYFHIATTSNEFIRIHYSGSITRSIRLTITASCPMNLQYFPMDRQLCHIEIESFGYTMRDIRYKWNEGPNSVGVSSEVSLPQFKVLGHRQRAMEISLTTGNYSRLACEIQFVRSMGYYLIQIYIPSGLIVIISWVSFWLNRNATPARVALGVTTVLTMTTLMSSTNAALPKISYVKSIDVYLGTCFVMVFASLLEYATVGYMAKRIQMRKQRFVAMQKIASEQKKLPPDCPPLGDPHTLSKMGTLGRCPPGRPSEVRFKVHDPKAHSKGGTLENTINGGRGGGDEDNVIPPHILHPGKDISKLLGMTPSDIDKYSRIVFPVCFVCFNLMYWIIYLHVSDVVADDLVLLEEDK

PxRDL2 [1] = target: T2, PxRDL2 (Plutella xylostella, UniProt C0L7I7); assay: cell-based; set-up: species or system Xenopus laevis oocytes
T2 sequence (C0L7I7 30-520): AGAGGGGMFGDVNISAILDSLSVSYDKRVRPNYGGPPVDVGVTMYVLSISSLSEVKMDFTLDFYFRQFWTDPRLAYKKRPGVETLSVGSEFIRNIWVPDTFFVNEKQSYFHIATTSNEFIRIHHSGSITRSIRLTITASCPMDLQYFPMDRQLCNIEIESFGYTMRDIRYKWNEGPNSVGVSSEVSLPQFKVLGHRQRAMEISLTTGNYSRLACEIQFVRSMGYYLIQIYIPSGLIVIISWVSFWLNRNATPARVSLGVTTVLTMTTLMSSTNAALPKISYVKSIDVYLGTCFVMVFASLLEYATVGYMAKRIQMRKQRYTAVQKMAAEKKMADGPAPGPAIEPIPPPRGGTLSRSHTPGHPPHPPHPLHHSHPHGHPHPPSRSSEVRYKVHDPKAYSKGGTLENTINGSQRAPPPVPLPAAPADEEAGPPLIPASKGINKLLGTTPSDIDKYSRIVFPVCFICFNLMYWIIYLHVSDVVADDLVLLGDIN

PxRDL2 [2] = target: T2, PxRDL2; assay: two-electrode voltage clamp, Xenopus laevis oocytes; assay type: cell-based

SMILES | pIC50 (PxRDL1) | pIC50 (PxRDL2 [1]) | pIC50 (PxRDL2 [2])
CCOC(=O)C1(C(=O)OCC)Nc2c([S+]([O-])C(F)(F)F)c(C#N)nn2-c2c(Cl)cc(C(F)(F)F)cc21 (stereo not drawn) [4a, diethyl 9-chloro-2-cyano-7-(trifluoromethyl)-3-((trifluoromethyl)sulfinyl)pyrazolo[1,5-α]quin azoline-5,5(4H)-dicarboxylate] | 5.69 | < 4.52 | 
Cc1cc(C2=NOC(c3cc(Cl)cc(Cl)c3)(C(F)(F)F)C2)ccc1C(=O)NCC(=O)NCC(F)(F)F (stereo not drawn) [fluralaner, 4-[5-(3,5-dichlorophenyl)-5-(trifluoromethyl)-4H-1,2-oxazol-3-yl]-2-methyl-N-[2-oxo-2-(2,2,2-trifluoroethylamino)ethyl]benzamide] | 8.00 |  | 7.74
CON=CNC(=O)c1ccc(C2=NOC(c3cc(Cl)cc(Cl)c3)(C(F)(F)F)C2)cc1C (stereo not drawn) [fluxametamide, 4-[5-(3,5-dichlorophenyl)-5-(trifluoromethyl)-4H-1,2-oxazol-3-yl]-N-[(E)-methoxyiminomethyl]-2-methylbenzamide] | 7.70 |  | 7.77

Source: doi:10.1101/2021.03.24.436736v2 (biorxiv, 2023)
